Experimental data taken from publication PMC9265957, “Bioavailability of Rosehip (Rosa canina L.) Infusion Phenolics Prepared by Thermal, Pulsed Electric Field and High Pressure Processing” (Foods, 2022).
Read-outs that look alike come from different tables or passages of the source.

How the values were obtained:
Caco-2 cells = assay: Transepithelial transportation of catechin from digests across the Caco-2 monolayer; format: in vitro ADME, Human; conditions: 4 h; digests diluted 1/5
Description: The in vitro gastrointestinal digestion was simulated regarding the procedures of Ozkan et al. and Sessa et al., with minor modifications. This assay involves two sequential stages: gastric digestion and bile salt/pancreatin digestion. For the gastric digestion, the samples containing 1.3 mg/mL final concentration of pepsin at pH 2 were placed in a water bath (GFL 1092, Burgwedel, Germany) at 37 °C and 100 rpm for a 2 h incubation period. To simulate intestinal digestion, gastric chyme was mixed with 0.175 mg/mL pancreatin and 1.10 mg/mL bile salts at pH 6.5, and then placed in a water bath at 37 °C and 100 rpm for 2 h incubation. […]
The transport trial was carried out based on Wu et al.. […] TEER values of the cells were determined before the experiment, after the last sampling and 24 h after the incubation period. […]
The quantification of phenolic compounds in rosehip infusions was conducted by UPLC based on Ozkan et al., with minor changes. Digests obtained from apical and basolateral sides were analyzed by a Waters Acquity UPLC system (Waters Co., Milford, MA, USA) combined with a diode array detector (DAD). […] Catechin concentration was determined by using its authentic standard. […] The results were expressed as mg catechin per 100 g dw (dry weight) of rosehip. […]

[1] = parameters: method as in doi:10.1111/jfpp.16096; conditions: rosehip infusions by TT, HPP and PEF, depending on the treatment; cited from earlier work
[2] = parameters: method as in PMID 31100382; conditions: ex vivo; after one hour; cited from earlier work
[3] = parameters: method as in PMID 31100382; conditions: rats; oral administration; after one hour; cited from earlier work
[4] = parameters: method as in earlier work; conditions: mice, cited from earlier work
[5] = cited from earlier work
cellular monolayer = system: cellular monolayer; parameters: method as in doi:10.1021/acsomega.8b03499; conditions: sweet cherry phenolics; cited from earlier work
[6] = parameters: method as in PMID 24191680; conditions: sour cherry fruit and nectar samples, depending on ingredients and processing; cited from earlier work
[7] = parameters: method as in doi:10.1016/j.jff.2018.10.025; conditions: rats; after 6 h; cited from earlier work
[8] = parameters: method as in Rodríguez-Roque et al. [11]; conditions: fruit juice blends, traditional thermal treatment; ref Rodríguez-Roque et al. [11]; cited from earlier work

## O.Oc1cc(O)c2c(c1)O[C@H](c1ccc(O)c(O)c1)[C@@H](O)C2 [catechin, Catechin]
Caco-2 cells
  Apical Recovery (%) of catechin: 68–69%
[1]
  catechin lost after gastrointestinal digestion: 51.8–61.0%
[2]
  permeation across the intestinal tissue: 12.5 µg
[3]
  maximum concentration in plasma: 120 ± 3.97 ng/mL
[4]; sour mangosteen rind
  maximum plasma catechin level: 1.10 µg/mL

## O=C(O[C@@H]1Cc2c(O)cc(O)cc2O[C@@H]1c1ccc(O)c(O)c1)c1cc(O)c(O)c(O)c1 [epicatechin gallate]
[5]; five healthy 22-year-old women
  amounts in plasma with chocolate food matrix: reduced
  form detected in plasma: aglycon form

## Oc1cc(O)c2c(c1)O[C@H](c1ccc(O)c(O)c1)[C@H](O)C2 [epicatechin]
Cellular monolayer
  quantity that crossed the cell monolayer: 0.37%
[6]
  basolateral side recovery: 1.1–3.8%
[4]; sour mangosteen peel
  maximum plasma epicatechin concentration: 62.03 µg/mL
[5]; five healthy 22-year-old women
  amounts in plasma with chocolate food matrix: no alteration
  form detected in plasma: conjugated metabolites

## O=C(O[C@@H]1Cc2c(O)cc(O)cc2O[C@@H]1c1cc(O)c(O)c(O)c1)c1cc(O)c(O)c(O)c1 [epigallocatechin gallate]
[5]; five healthy 22-year-old women
  amounts in plasma with chocolate food matrix: reduced
  form detected in plasma: aglycon form

## Oc1cc(O)c2c(c1)O[C@H](c1cc(O)c(O)c(O)c1)[C@H](O)C2 [epigallocatechin]
[5]; in vivo
  amounts in plasma with chocolate food matrix: no alteration
  form detected in plasma: conjugated metabolites

## Oc1cc(O)c2c(c1)OC(c1ccc(O)c(O)c1)C(O)C2 (stereo not drawn) [free catechin]
[7]
  bioavailability (plasma catechin values): 0.241 µM·h

## O=C1O[C@H]([C@@H](O)CO)C(O)=C1O [vitamin C]
[8]
  bioaccessibility: 11.1%
